Test results reported in ChEMBL document CHEMBL3507680, “University of Dundee, Gates Library screen for HepG2 cell viability”.

Assay: Human HepG2 cell viability assay in 384 well format
Type: toxicity, cell-based
Parameters: dose 125 nL, time 70.5 hour; concentration not given beside the values
Settings: HepG2 cells, read-out: Inhibition

| Structure (SMILES) | cytotoxicity at 70.5 h [%] |
| --- | --- |
| CN(c1ccc(CNc2c(Cl)cccc2C#N)cc1)S(C)(=O)=O | -1.4 |
| Cc1c(C(=O)NC2CC(C)(C)NC(C)(C)C2)cnn1-c1ccc(F)cc1 | -2.72 |
| CN(C1CCCC1)C(C)(C)C(=O)NCCS(C)(=O)=O | 2.52 |
| Cc1cc(CNc2ccnn2CC(C)C)ccc1-n1cncn1 | 7.96 |
| CCN(Cc1noc(CC(C)C)n1)Cc1ccccc1Cl | 1.69 |
| Cc1ccc2cc(C(=O)N3CCN(C(=O)N(C)C)CC3)ccc2n1 | -2.65 |
| CCc1ccc(C(=O)NCc2ccnc(C)n2)cc1 | -8.72 |
| O=C(c1cnc2[nH]c(=O)[nH]c(=O)c2c1)N1CCCC1C1CCCC1 (stereo not given) | -11.9 |
| Cn1c(=O)[nH]c(=O)c2cc(C(=O)N3CCCC3C3CCCC3)cnc21 (stereo not given) | 22.8 |
| CCN(c1ccc(C(=O)NCc2ccnc(C)n2)cc1)C(C)C | -8.68 |
| O=C(c1cnc2[nH]c(=O)[nH]c(=O)c2c1)N1CCCC1C1CCCCC1 (stereo not given) | -5.02 |
| CC1CN(Cc2cccc(C#N)c2)CCN1c1ccc2nncn2n1 (stereo not given) | -5.84 |
| CC1CN(c2ccc(C#N)cn2)CCN1c1ccc2nncn2n1 (stereo not given) | -4.47 |
| O=C1CC(NS(=O)(=O)c2ccccc2)CN1Cc1ccccc1 (stereo not given) | -5.96 |
| CCOc1ccc(C#N)cc1NC(=O)N1CCOC(C(N)=O)C1 (stereo not given) | 23 |
| N#Cc1ccc(N2CCN(c3ccc4nncn4n3)CC2)nc1 | -2 |
| c1ccc2[nH]c(C3CCN(Cc4nnc(C5CC5)o4)CC3)nc2c1 | -5.81 |
| CC(C)(CNc1ccc(C#N)c(C(F)(F)F)c1)C(N)=O | 2.06 |
| O=C(CN1CCSCC1c1ccccc1)N1CCOCC1 (stereo not given) | -3.64 |
| Cc1nn(C)c(C)c1CCC(=O)Nc1cn(C)c(=O)n(C)c1=O | -1.93 |
| CN(CC(F)(F)F)C(=O)CNC(=O)Cc1ccccc1O | 5.05 |
| Cc1oc(C(=O)O)cc1S(=O)(=O)Nc1cccc(-n2nccc2C)c1 | -5.02 |

| Structure (SMILES) | cytotoxicity at 70.5 h [%] |
| --- | --- |
| CC(C)(C)NC(=O)CNc1ccc(C#N)c(C(F)(F)F)c1 | -5.25 |
| CN(CC(F)(F)F)C(=O)CNC(=O)Cc1cccc(O)c1 | 1.12 |
| Cc1cc(CCC(=O)N2CCOCC2)ccc1Br | -5.28 |
| CC(NCc1cccc(S(=O)(=O)N(C)C)c1)c1ccccn1 (stereo not given) | -6.92 |
| CN(CC(F)(F)F)C(=O)CNC(=O)Cc1ccc(O)cc1Cl | -9.7 |
| Cc1ccc(CCC(=O)N2CCOCC2)cc1Cl | -6.51 |
| COC1CCCN(C(=O)c2sc(CC(C)C)nc2C)C1 (stereo not given) | -6.5 |
| CSC(C)(C)CNC(=O)NCC[S+]([O-])c1ccccc1F (stereo not given) | -9.35 |
| CN(C)C(=O)CC1CCOc2ccccc21 (stereo not given) | 0.971 |
| c1ccc(-c2noc(C3CCN(CCCn4cncn4)CC3)n2)cc1 | 0.0875 |
| CC(Cn1cccn1)NCc1csc(-c2ccccc2)n1 (stereo not given) | -3.84 |
| CC(C)c1nnc2n1CCN(C(=O)c1ccc3c(c1)NC(=O)CO3)C2 | -2.96 |
| c1ccc(-c2noc(C3CCN(CCn4cccn4)CC3)n2)cc1 | 12.8 |
| COCCN1CCC(c2nc3ccccc3[nH]2)CC1 | -11 |
| Cc1cnn(CC2CCCN2C(=O)Cc2cn3ccsc3n2)c1 (stereo not given) | -6.38 |
| CNC(=O)Cc1noc(Cc2cccc(Br)c2)n1 | -9.45 |
| CCOCc1ccccc1NC(=O)NC1CCN(c2ncccn2)CC1 | -6.67 |
| O=C(O)c1ccc(S(=O)(=O)Nc2cccc(CC(F)(F)F)c2)c(F)c1 | -7.64 |
| Cn1cc(NC(=O)c2cc[nH]n2)cc(Cl)c1=O | -5.18 |
| O=C(NCCc1nnc2n1CCC2)N1CCC2(CCCCC2)C1 | -0.937 |
| Cn1cc(NC(=O)c2ccccn2)cc(Cl)c1=O | -7.7 |
| O=C(NCCc1nnc2n1CCCCC2)N1CCC2(CCCC2)CC1 | -7.24 |

| Structure (SMILES) | cytotoxicity at 70.5 h [%] |
| --- | --- |
| CC(C)CC(C)N(C)C(=O)CCn1cccn1 (stereo not given) | -6.33 |
| c1cnn(CCNCc2csc(-c3ccc4c(c3)OCO4)n2)c1 | -1.83 |
| CCN(C)c1ccc(CNS(=O)(=O)CC2CCCO2)cc1F (stereo not given) | -16 |
| CN(Cc1cccc(F)c1)C(=O)c1ccncc1Cl | -18.9 |
| CCCn1nnnc1CN(c1ccc(C)cc1)C(C)C | -5.93 |
| CN(Cc1cccc(OC(F)(F)F)c1)C(=O)c1ccncc1F | -4.4 |
| Cc1cc(C)n(CC2CCCN2C(=O)Cc2cn3ccccc3n2)n1 (stereo not given) | -3.71 |
| COc1ccc(-c2nc(CNC(C)Cn3cccn3)cs2)cc1 (stereo not given) | -12.5 |
| CC(NCC(F)(F)F)c1ccc(S(C)(=O)=O)c(F)c1 (stereo not given) | 12.5 |
| CC(=O)c1cccc(NCC(=O)NC(N)=O)c1 | 27.4 |
| O=C(COCc1ccccc1Cl)N1CCN(c2ccc(Br)cn2)CC1 | -4.89 |
| Cn1ncc2c1C(COCC1CC1)CN(S(=O)(=O)C1CC1)C2 (stereo not given) | -4.08 |
| Cn1ccc(C(=O)NC2CCC23CCN(C(=O)c2ccccn2)CC3)c1 (stereo not given) | -4.01 |
| CN(C)C(=O)N1CCn2c(Cn3cccn3)cnc2C1 | 1.93 |
| Cc1ccc(C(=O)N2CCc3c(COCC4CC4)cncc3C2)o1 | 18.4 |
| Cc1cccc(C(=O)N2CCn3cc(CNC(=O)CC4CC4)nc3C2)n1 | -4.69 |
| COCCNC(=O)[C@H]1CN(c2ncccn2)C[C@H]2OCC[C@@H]12 | -15.6 |
| CN(C)C(=O)[C@H]1C[C@@H]2CN(S(=O)(=O)c3ccccc3)C[C@H]1O2 | -6.1 |
| CN(C)C(=O)NC1COC2(CCN(Cc3ccc(N(C)C)cc3)CC2)C1 (stereo not given) | -2.99 |
| Cc1ccc(N2C[C@H](C(=O)N3CCOCC3)[C@@H]3CCO[C@@H]3C2)nn1 | -11.3 |
| CN(C)CC(=O)N1Cc2ncn(C)c2C(COCC2CCOCC2)C1 (stereo not given) | -6.48 |
| O=C1[C@H]2CN(Cc3ccoc3)C[C@@H]2CCN1Cc1cccnc1 | -8.89 |

| Structure (SMILES) | cytotoxicity at 70.5 h [%] |
| --- | --- |
| c1ccc(CCN2C[C@@H]3OCCN(c4ncccn4)[C@@H]3C2)cc1 | -9.92 |
| Cn1cc(Cl)cc1C(=O)N1CCC2(CCCN(CC3CCC3)C2=O)C1 (stereo not given) | 18.1 |
| Cc1cnccc1N1CCCN(C(=O)CCc2n[nH]c(C)c2C)CC1 | 18.7 |
| Cc1ccccc1[C@@H]1CN(CCOCCO)C[C@H]1C(=O)O | -6.95 |
| CNc1nc2c(c(C(=O)N3CCCC3)n1)CN(C(=O)C1CCCC1)CC2 | 15.7 |
| Cc1ccc(OCC2CCCN(CC3CCOCC3)C2)cc1 (stereo not given) | 2.28 |
| CCCc1cc(C(=O)N2CC(c3ccncc3)C2)ccn1 | 8.75 |
| Cc1occc1C(=O)N1CCc2c(CNc3ncccn3)cncc2C1 | -1.28 |
| Cc1cc(CN2CCc3c(CNc4ncccn4)cncc3C2)oc1C | -0.479 |
| CO[C@H]1CCN(S(=O)(=O)c2cccs2)[C@H]1Cc1cccnc1 | 2.3 |
| CO[C@@H]1CCN(S(=O)(=O)c2cccs2)[C@H]1Cc1cccnc1 | -4.13 |
| CC(C)OCc1ncn2c1CN(Cc1ccoc1)CCC2 | -11.8 |
| COCC(=O)N1C[C@H]2CN(Cc3csc(C)n3)C(=O)[C@H]2C1 | -8.09 |
| CCS(=O)(=O)N1CCC2(CN(c3cccc(F)c3)C(=O)CN2C)C1 (stereo not given) | -8.93 |
| Cc1noc([C@H]2C[C@H]3OCC[C@H]3N(Cc3cccs3)C2)n1 | -3.05 |
| O=C(Cc1ccccc1)N1Cc2nccn2CC(CN2CCCC2)C1 (stereo not given) | -0.449 |
| Cc1nc(CN2C[C@@H]3CN(C(=O)C4(C#N)CC4)C[C@@H]3C2=O)cs1 | -2.26 |
| CN1CC(=O)N(c2cccc(F)c2)CC12CCN(S(=O)(=O)C1CC1)C2 (stereo not given) | -2.84 |
| Cc1nc2c(c(NC3CC3)n1)CCN(C(=O)CCO)CC2 | -4.49 |
| CN(C)C(=O)[C@H]1C[C@H]2OCC[C@H]2N(Cc2ccc(F)cc2)C1 | -7.16 |
| O=C1CC[C@@H]2[C@@H](CCN2C(=O)c2ccsc2)N1Cc1ccncc1 | 0.223 |
| O=C1CC(c2ccncc2)C2(CCN(C(=O)c3cccc(F)c3)CC2)N1 (stereo not given) | -9.17 |

| Structure (SMILES) | cytotoxicity at 70.5 h [%] |
| --- | --- |
| COc1ccc(CN2CCn3cc(CNC(=O)CC4CC4)nc3C2)cc1 | -8.89 |
| Cc1cccc(CN2CCc3ncnc(-c4ccsc4)c3CC2)n1 | -13.6 |
| c1ccc(CN2CCc3ncnc(-c4ccoc4)c3CC2)nc1 | -5.45 |
| Cn1cc(CN2CCn3cc(CNC(=O)CC4CC4)nc3C2)cn1 | -7.17 |
| CN(C)C(=O)N1CC2(CCNCC2)c2cc(F)ccc21 | -8.45 |
| c1cnc(N2CCCC3(CCN(CC4CCC4)C3)C2)nc1 (stereo not given) | -8.21 |
| O=C(c1ccco1)N1CCc2c(COCC3CC3)cncc2C1 | -8.01 |
| Cc1ccc(N2C[C@H]3OCC[C@H]3[C@H](C(=O)NCC3CC3)C2)nn1 | -12.5 |
| CO[C@@H]1CCN(Cc2nccs2)C[C@@H]1Cc1ccccc1 | -11.2 |
| O=C(c1ccncc1)N1C[C@@H]2CCN(c3cccnc3)C[C@@H]2C1 | -16.9 |
| Cc1cccc(CN2C(=O)C[C@H]3[C@@H]2CCN3Cc2cccs2)n1 | 0.507 |
| Cc1ccc(CN2CC[C@@H]3[C@H]2CCC(=O)N3Cc2ccncc2)s1 | 21 |
| O=C(O)c1cc2c(nc1-c1ccoc1)CCN(CC1CCOC1)CC2 (stereo not given) | -13.1 |
| Cn1cnc2c1C(COCC1CCOCC1)CN(c1ncccn1)C2 (stereo not given) | -11.3 |
| COCC1CN(Cc2ccncc2)Cc2nn(CC3CC3)cc21 (stereo not given) | -12.8 |
| O=C1[C@@H]2CCN(C3CCOCC3)C[C@@H]2OCCN1Cc1cccnc1 | -16 |
| COCCNC(=O)C1CN(Cc2cccc(C)n2)Cc2ccnn2C1 (stereo not given) | -5.1 |
| COCCNC(=O)C1CN(Cc2nccs2)Cc2ccnn2C1 (stereo not given) | -6.42 |
| Cc1cccc(CN2C(=O)CC[C@@H]3[C@H]2CCN3Cc2cccnc2)n1 | -0.831 |
| Cc1cccc(CN2C(=O)CC[C@@H]3[C@H]2CCN3Cc2nccn2C)n1 | -9.05 |
| COCCNC(=O)C1CN(Cc2ccncc2)Cc2ccnn2C1 (stereo not given) | -14.1 |
| c1cncc(CN2CCO[C@@H]3CN(Cc4ccoc4)CC[C@@H]3C2)c1 | -7.13 |
